Experimental data taken from patent publication US20220169632A1, “METHODS AND MATERIALS FOR INCREASING OR MAINTAINING NICOTINAMIDE MONONUCLEOTIDE ADENYLYL TRANSFERASE-2 (NMNAT2) POLYPEPTIDE LEVELS” (University of Pittsburgh - Of the Commonwealth System of …, priority 2019, published 2022).

Test system: NMNAT2
Assay: NMNAT2-Hibit nano-luciferase activity in stably transfected U87MG cells, various concentrations, 24 hours
Assay type: cell-based
Details: U87MG cells stably transfected with NMNAT2-Hibit luc plasmid
Experimental: Selected compounds were tested in vitro. U87MG cells were stably transfected with NMNAT2-Hibit luc plasmid. Cells were treated with a test compound at various concentrations for 24 hours. Cells were then collected and assayed for nano-luciferase activity.

| Structure (SMILES) | E: compound efficacy for NMNAT2 activation (concentration giving >25% increase in NMNAT2 luciferase activity) |
| --- | --- |
| O=C(Cn1cc(C(=O)c2ccc(Cl)cc2)c2ccccc21)NCc1ccncc1 [BC20216] | ++ (“++” >25% increase in NMNAT2 luciferase activity at >1 μM ≤25 μM.) |
| COc1ccccc1CNC(=O)c1ccc2c(c1)c(C)c(C)n2Cc1cccc(F)c1 [BC20115] | ++ (“++” >25% increase in NMNAT2 luciferase activity at >1 μM ≤25 μM.) |
| COc1cccc(CNC(=O)CCCc2cn(Cc3cccc(C)c3)c3ccccc23)c1 [BC20169] | ++ (“++” >25% increase in NMNAT2 luciferase activity at >1 μM ≤25 μM.) |
| Cc1ccc(Cn2cc(C3=CC(=O)NCC3)c3ccccc32)cc1 [BC20191] | ++ (“++” >25% increase in NMNAT2 luciferase activity at >1 μM ≤25 μM.) |
| Cc1ccc(Cn2cc(C3CCN(Cc4cccc(F)c4)C(=O)C3)c3ccccc32)cc1 (stereo not shown) [BC20231] | ++ (“++” >25% increase in NMNAT2 luciferase activity at >1 μM ≤25 μM.) |
| O=C(CCCc1cn(Cc2ccccc2F)c2ccccc12)NCCc1ccccc1 [BC20131] | ++ (“++” >25% increase in NMNAT2 luciferase activity at >1 μM ≤25 μM.) |
| Cc1ccc(Cn2cc([C@H]3C[C@@H]3C(=O)NCc3cccc(C)c3)c3ccccc32)cc1 (racemic) [BC20297] | + (“+” >25% increase in NMNAT2 luciferase activity at >25 μM.) |
| O=C1CC(c2cn(Cc3cccc(F)c3)c3ccccc23)CCN1Cc1ccncc1 (stereo not shown) [BC20322] | ++ (“++” >25% increase in NMNAT2 luciferase activity at >1 μM ≤25 μM.) |
| CCCCN(CC)Cc1ccc(CNC(=O)c2ccc3c(c2)c(C)c(C)n3Cc2ccccc2C)o1 [BC20266] | ++ (“++” >25% increase in NMNAT2 luciferase activity at >1 μM ≤25 μM.) |
| Cc1ccc(CNC(=O)N2CCc3c(c4ccccc4n3Cc3cccc(F)c3)C2)cc1 [BC20331] | + (“+” >25% increase in NMNAT2 luciferase activity at >25 μM.) |
| O=C(NCCc1ccccc1)N1CCc2c(c3ccccc3n2Cc2ccncc2)C1 [BC20335] | + (“+” >25% increase in NMNAT2 luciferase activity at >25 μM.) |
| Cc1ccc(CNC(=O)Cn2c3c(c4ccccc42)CC(C(=O)NCc2ccco2)CC3)o1 (stereo not shown) [BC20285] | ++ (“++” >25% increase in NMNAT2 luciferase activity at >1 μM ≤25 μM.) |
| Cc1c(C)n(Cc2cccc(F)c2)c2ccc(C(=O)NCc3cccnc3)cc12 [BC20265] | ++ (“++” >25% increase in NMNAT2 luciferase activity at >1 μM ≤25 μM.) |
| Cc1ccc(CNC(=O)CCCc2cn(Cc3ccccc3F)c3ccccc23)o1 [BC20122] | ++ (“++” >25% increase in NMNAT2 luciferase activity at >1 μM ≤25 μM.) |
| Cc1cccc(Cn2cc(CCCC(=O)NCc3cccc(F)c3)c3ccccc32)c1 [BC20166] | ++ (“++” >25% increase in NMNAT2 luciferase activity at >1 μM ≤25 μM.) |
| Cc1ccc(CNC(=O)CCCc2cn(Cc3ccccc3C)c3ccccc23)o1 [BC20150] | ++ (“++” >25% increase in NMNAT2 luciferase activity at >1 μM ≤25 μM.) |
| Cc1ccc(C)c(Cn2c(C(F)F)c(CCC(=O)NCCc3ccccc3)c3ccccc32)c1 [BC20402] | ++ (“++” >25% increase in NMNAT2 luciferase activity at >1 μM ≤25 μM.) |
| Cc1ccccc1CNC(=O)C1CCc2c(c3ccccc3n2Cc2ccncc2)C1 (stereo not shown) [BC20280] | + (“+” >25% increase in NMNAT2 luciferase activity at >25 μM.) |
| Cc1cccc(CN2CCc3cn(Cc4cc(C)ccc4C)c4cccc(c34)C2=O)c1 [BC20261] | + (“+” >25% increase in NMNAT2 luciferase activity at >25 μM.) |
